Measurements published in patent publication US20070149401A1, “METHODS AND COMPOSITION FOR GROWTH ENGINEERING AND DISEASE CONTROL” (Syngenta Crop Protection, Inc., priority 2005, published 2007).

Columns and labels:
vine ripe tomatoes = assay: Yields of vine ripe tomatoes; type: in vivo, tomato
Source text: Table O also illustrates the safening effect of the PGR on the seed to later foliar application of the plant activator. Without the PBZ on the seed, the yield decreases from 119 to 96.

Barley [1] = assay: Barley lodging control; type: in vivo
Method: (§1) Barley seeds were treated with paclobutrazol (alone) and with paclobutrazol in combination with gibberrelic acid at varying rates. The resulting plants were then additionally treated with foliar applications of trinexapac plant growth regulator (applied as Palisade™ 128 and Palisade™ 150) at the Feekes 6 timing. Emergence and percent lodging were measured against the check. The results are found in Tables BB and CC.

Barley [2] = assay: Barley emergence after PGR seed treatments; type: in vivo
Method: as §1

[3] = test system: Variety Florida 47 tomatoe; assay: Water use efficiency: cumulative water used by tomato transplants; type: in vivo; details: for Cumulative Water Used (ml/6 plants), projected through 6th week: Table H
Method: Variety Florida 47 tomatoe seeds were treated and the plants tested with respect to the cumulative amount of water used to sustain the plants from seeding through growth.
Using the data obtained from these trials, and empirical calculations, a tomato transplant business could save approximately 700 gallons of water while producing 27,000 transplants.
20 tables/greenhouse×28 flats/table×48 plants/flat×0.6 liters/6 plants×gal/3.75 1=710 gallons of water.

Xanthamonas spp. = assay: Xanthamonas infection of tomato transplants; type: in vivo; details: versus fungicidal mixture alone
Source text: Disease resistance in the post-emergent plant has also been shown through use of plant growth regulators as a seed treatment. A set of tomato transplants from seed treated with paclobutrazol and a fungicidal mixture of fludioxonil and mefenoxam was inoculated with Xanthamonas spp. 18 days after transplanting. […] The antibacterial activity of the PGR-treated plants is significant at several rates of application.

Colorado Potato Beetle = assay: Insect control: Colorado Potato Beetle count on plants from treated seed; type: in vivo
Source text: Presence of Colorado Potato Beetle was studied in plants resulting from the seed treatments with paclobutrazol.

CSC(=O)c1cccc2nnsc12 [ASM, acibenzolar-S-methyl]
Cumulative Tomato Yields No. Fruit/Plot (12 plants) (vine ripe tomatoes; 29-Aug, averages of 5 programs (ASM) and 3 programs (ASM + PBZ), PBZ on seed, ASM foliar): 96

O=C1CC(C(=O)O)CC(=O)C1=C(O)C1CC1 (stereo not shown) [Trinexapac [128] Feekes 6]
% Lodging (Barley [1]; 7 Jun): 7.5% | % Lodging (Barley [1]; 7 Jun, listed as Trinexapac [128] Feekes 6 + 7 days): 79.2% | % Lodging (Barley [1]; 11 Jun): 0.5% | % Lodging (Barley [1]; 11 Jun, listed as Trinexapac [128] Feekes 6 + 7 days): 17.2% | % Lodging (Barley [1]; 18 Jun): 0% | % Lodging (Barley [1]; 18 Jun, listed as Trinexapac [128] Feekes 6 + 7 days): 1.7% | % Lodging (Barley [1]; 19 May): 8.3% | % Lodging (Barley [1]; 19 May, listed as Trinexapac [128] Feekes 6 + 7 days): 7.5%

CC(C)(C)[C@@H](O)[C@@H](Cc1ccc(Cl)cc1)n1cncn1 (racemic) [PBZ, paclobutrazol]
Emergence, 8 Days after planting (no. emerged-6 ft row) (Barley [2]; listed as PBZ rate (1)): 68.2 | Emergence, 8 Days after planting (no. emerged-6 ft row) (Barley [2]; listed as PBZ rate (3)): 38.7 | Emergence, 8 Days after planting (no. emerged-6 ft row) (Barley [2]; listed as PBZ ratge (2)): 36.3 | Emergence, 14 Days after planting (no. emerged-6 ft row) (Barley [2]; listed as PBZ rate (1)): 113.2 | Emergence, 14 Days after planting (no. emerged-6 ft row) (Barley [2]; listed as PBZ rate (3)): 114.5 | Emergence, 14 Days after planting (no. emerged-6 ft row) (Barley [2]; listed as PBZ ratge (2)): 106.3 | % Lodging (Barley [1]; 7 Jun, listed as PBZ rate (1)): 85.8% | % Lodging (Barley [1]; 7 Jun, listed as PBZ rate (3)): 72.5% | % Lodging (Barley [1]; 7 Jun, listed as PBZ ratge (2)): 68.3% | % Lodging (Barley [1]; 11 Jun, listed as PBZ rate (1)): 29.2% | % Lodging (Barley [1]; 11 Jun, listed as PBZ rate (3)): 9.2% | % Lodging (Barley [1]; 11 Jun, listed as PBZ ratge (2)): 16.8% | % Lodging (Barley [1]; 18 Jun, listed as PBZ rate (1)): 31.7% | % Lodging (Barley [1]; 18 Jun, listed as PBZ rate (3)): 20% | % Lodging (Barley [1]; 18 Jun, listed as PBZ ratge (2)): 23.3% | % Lodging (Barley [1]; 19 May): 0% | yield (in words) (vine ripe tomatoes; PBZ on the seed, later foliar plant activator): substantially higher | Cumulative Water Used (ml/6 plants), projected through 6th week ([3]; 1-Aug): 883 ml/6 plants | Cumulative Water Used (ml/6 plants), projected through 6th week ([3]; 21-Jul): 113 ml/6 plants | Cumulative Water Used (ml/6 plants), projected through 6th week ([3]; 22-Jul): 172 ml/6 plants | Cumulative Water Used (ml/6 plants), projected through 6th week ([3]; 23-Jul): 259 ml/6 plants | Cumulative Water Used (ml/6 plants), projected through 6th week ([3]; 25-Jul): 339 ml/6 plants | Cumulative Water Used (ml/6 plants), projected through 6th week ([3]; 26-Jul): 423.17 ml/6 plants | Cumulative Water Used (ml/6 plants), projected through 6th week ([3]; 27-Jul): 506 ml/6 plants | Cumulative Water Used (ml/6 plants), projected through 6th week ([3]; 28-Jul): 575 ml/6 plants | Cumulative Water Used (ml/6 plants), projected through 6th week ([3]; 29-Jul): 649 ml/6 plants | Cumulative Water Used (ml/6 plants), projected through 6th week ([3]; 31-Jul): 790 ml/6 plants | water use (in words) ([3]; during transplant production): decreased water use | resistance against xanthamonas infection (in words) (Xanthamonas spp.): greater resistance | No. Potato Beetle Adults/plant (Colorado Potato Beetle): 0.8

O=C1CC(C(=O)O)CC(=O)C1=C(O)C1CC1 (stereo not shown) [Trinexapac [150] Feekes 6]
% Lodging (Barley [1]; 7 Jun): 0.2% | % Lodging (Barley [1]; 11 Jun): 0% | % Lodging (Barley [1]; 18 Jun): 0% | % Lodging (Barley [1]; 19 May): 11.7%
